“And” between values parts separate entries of the source, which are not always exact repeats. Equal entries are not always repeated.
Columns and labels:
[1] = tested on: volunteers with a history of skin sensitivity to Balsam of Peru; assay: in vivo skin anti-irritancy test, Balsam of Peru challenge, redness by Minolta chromameter (Example 3); details: 0.1% topical on ventral forearm, 20 min before Balsam of Peru, 7 volunteers
Procedure: The following in vivo assay illustrates the effectiveness of 3'-sialyl oligosaccharide derivatives in preventing skin irritation. The skin anti-irritancy effects of various derivatives of 3'-sialyl lactose were tested on 7 volunteers with a history of skin sensitivity to Balsam of Peru. The test compounds benzyl sialyl lactose and ethyl sialyl lactose were applied to the ventral forearms of the panelists. The material was allowed to absorb for twenty minutes and then Balsam of Peru, an irritant, was applied on the test sites. Skin irritation was measured in terms of increase in skin redness. The degree of redness was measured with the Minolta chromameter and compared with the positive and negative controls. The positive control was the color of skin treated with Balsam of Peru alone and the negative control was the skin treated with cola material challenged like the test material.

[2] = tested on: volunteers with a history of skin sensitivity to Balsam of Peru; assay: in vivo skin anti-irritancy test, Balsam of Peru challenge, redness by Minolta chromameter (Example 2); details: for % Decrease In Redness: 20 min before Balsam of Peru, 7 volunteers; for preventing irritation caused by a topical irritant (in words): Balsam of Peru challenge, 0.1%
Excerpt: The following in vivo assay illustrates the effectiveness of sialyl oligosaccharide derivatives, 3'- and 6'-sialyl lactose, in preventing skin irritation. The in vivo assays used to assess efficacy of topical anti-irritants are known to those skilled in the art, examples of such assays may be found in Muizzuddin et al., 1990, J. Soc. Cosmet. Chem. 41:369-378, and Lubach et al. in Topical Corticoids, Maibach & Surber (eds.) Basel, Karger, 1992, pp. 26-41, both of which are incorporated herein by reference in their entirety. The skin anti-irritancy effects of 3'- and 6'- sialyl lactose were tested on 7 volunteers with a history of skin sensitivity to Balsam of Peru. The test compounds were applied to the ventral forearms of the panelists. The material was allowed to absorb for twenty minutes and then Balsam of Peru, an irritant, was applied to the test sites. Skin irritation was measured in terms of increase in skin redness.
The degree of redness was measured with the Minolta chromameter and compared with the positive and negative controls. The positive control was the color of skin treated with Balsam of Peru alone and the negative control was the skin treated with cola material challenged like the test material.

[3] = tested on: PMN-endothelial cells; assay: in vitro inhibition of adhesion of activated neutrophils to endothelial cells; type: cell-based; details: for % Inhibition of Adhesion: neutrophils activated with interleukin-1 or TPA
Procedure: The following in vitro assay illustrates the effectiveness of the sialyl oligosaccharide derivative, 3' sialyl lactose, in inhibiting the adhesion of cells that express SLeX on their surfaces to cells expressing a selectin receptor. The ability of 3'-sialyl lactose to inhibit cell adhesion was tested using an in vitro assay system. Neutrophils were activated with either interleukin-1 or phorbol ester, TPA, to induce expression of selections and binding to endothelial cells. The activated neutrophils were treated with either 3'-sialyl lactose at 0.01 and 0.02%, sucrose at 4% or a positive control, and then assayed for their ability to bind to PMN-endothelial cells.

[4] = 0.1% topical on ventral forearm

Question: For benzyl sialyl lactose, which “% Decrease In Redness” value [1] is on record?
Answer: Its value is 42.47%.

Question: And the “% Decrease In Redness” value ([1]; listed as benzyl sialyl lactose)?
Answer: Its value is 42.47%.

Question: `CC(=O)N[C@H]1[C@H]([C@H](O)[C@H](O)CO)OC(O)(C(=O)O)C[C@@H]1O` (some centres unmarked) [Sialic Acid, reference compound] was tested. Which “% Decrease In Redness” value [2, 4] did it give?
Answer: Its value is 31%.

Question: How did the “% Decrease In Redness” value [2, 4] turn out when `CC(=O)N[C@H]1[C@H]([C@H](O)[C@H](O)CO)O[C@@](OC[C@H]2O[C@@H](O[C@H]3[C@H](O)[C@@H](O)[C@H](O)O[C@@H]3CO)[C@H](O)[C@@H](O)[C@H]2O)(C(=O)O)C[C@@H]1O` [6'-Sialyl lactose, 6'-sialyl lactose] was run?
Answer: The value was 57%.

Question: And the “preventing irritation caused by a topical irritant (in words)” value (shortened to “preventing irritation caused”) [2]?
Answer: Its value is “significant activity”.

Question: With `OC[C@H]1O[C@@H](O[C@H]2[C@H](O)[C@@H](O)C(O)O[C@@H]2CO)[C@H](O)[C@@H](O)[C@H]1O` (some centres unmarked) [Lactose, reference compound] as the compound, how does the “% Decrease In Redness” value [2, 4] read?
Answer: Its value is 45%.

Question: And the “preventing irritation caused” value [2]?
Answer: Its value is “ineffective”.

Question: With `CC(=O)N[C@H]1[C@H]([C@H](O)[C@H](O)CO)O[C@@](O[C@H]2[C@@H](O)[C@@H](CO)O[C@@H](O[C@H]3[C@H](O[C@@H]4O[C@@H](C)[C@@H](O)[C@@H](O)[C@@H]4O)[C@@H](NC(C)=O)C(O)O[C@@H]3CO)[C@@H]2O)(C(=O)O)C[C@@H]1O` (some centres unmarked) [Sialyl Lewis X, NeuAcα2-3βGalβ1-4(Fucα1-3)GlcNAc, reference compound] as the compound, how does the “% Decrease In Redness” value [2, 4] read?
Answer: Its value is 66%.

Question: How did the “% Inhibition of Adhesion” value ([3]; test compound at 4.0%) turn out when `OC[C@H]1O[C@@](CO)(O[C@H]2O[C@H](CO)[C@@H](O)[C@H](O)[C@H]2O)[C@@H](O)[C@@H]1O` [Sucrose, reference compound] was run?
Answer: The value was 40%.

Question: For `CC(=O)N[C@H]1[C@H]([C@H](O)[C@H](O)CO)O[C@@](O[C@H]2[C@@H](O)[C@@H](CO)O[C@@H](O[C@H]3[C@H](O)[C@@H](O)C(O)O[C@@H]3CO)[C@@H]2O)(C(=O)O)C[C@@H]1O` (some centres unmarked) [3'-Sialyl lactose, 3'-N acetylneuraminyl-lactose], which “inhibiting the adhesion of cells that express SLeX to cells expressing a selectin receptor (in words)” value ([3]; 0.02%, IL-1 induced neutrophils) is on record?
Answer: Its value is “very effective”.

Question: And the “% Inhibition of Adhesion” value ([3]; test compound at 0.01%)?
Answer: Its value is 39%.

Question: What about the “% Inhibition of Adhesion” value ([3]; test compound at 0.02%) of the same compound?
Answer: The value was 61%.

Question: What about the “% Decrease In Redness” value [2, 4] of the same compound?
Answer: Its value is 69% and 67%.

Question: And the “preventing irritation caused” value [2]?
Answer: The value was “significant activity”.

Question: With ethyl sialyl lactose as the compound, how does the “% Decrease In Redness” value [1] read?
Answer: The value was 40.6%.

Question: And the “% Decrease In Redness” value ([1]; listed as lactose ethyl)?
Answer: The value was 40.6%.

Question: For `C[C@]12CCC(=O)C=C1CC[C@@H]1[C@@H]2[C@@H](O)C[C@@]2(C)[C@H]1CC[C@]2(O)C(=O)CO` [Hydrocortisone, reference compound], which “% Decrease In Redness” value ([2]; 0.5% topical on ventral forearm) is on record?
Answer: Its value is 66%.

Reference: patent publication EP1032364B1, “TOPICAL COMPOSITIONS CONTAINING SIALYL SUGARS AND THEIR DERIVATIVES” (E-L Management Corp., priority 1998, dated 2000)
